# Data: patent US20220177510A1, “DERIVATIVES OF GYLCERO-MANNO-HEPTOSE ADP FOR USE IN MODULATING IMMUNE RESPONSE” (priority 2019, published 2022)
# “Also recorded” adds a separate entry of the source.
# Legend:
# ALPK1 [1] = target: T1, ALPK1 (Homo sapiens, UniProt Q96QP1); test: IL-8 secretion by HEK293 cells (IL-8 ELISA) as indication of ALPK1 activation; type: cell-based; settings: HEK293 cells treated 4 hours, FIG. 6, Table 2A
# T1 construct: endogenous in cells; host or cells: HEK293 (A1); HEK293 stably expressing an NF-kB-alkaline phosphatase reporter (A2)
# Protocol: HEK293 cells were treated with H1b-ADP derivatives (A1, A2, A3, and A4) or with Compound 28 for 4 hours followed by analysis of IL-8 secretion using an IL-8 enzyme linked immunoassay (ELISA). IL-8 secretion is an indication of ALPK1 activation. The EC50 of each compound was determined using GraphPad Prism.
# ALPK1 [2] = target: T1, ALPK1; test: NF-kB promoter driven alkaline phosphatase reporter in HEK293 cells (pNPP assay); type: cell-based; settings: HEK293-NFkB-AP reporter cells treated 7 hours
# Protocol: NF-kB activation was assayed using HEK293 cells stably expressing an NF-kB reporter construct comprising an NF-kB promoter driving expression of alkaline phosphatase (AP). In this system, activation of NF-kB promoter activity drives the expression of AP which is detected using a chromogenic substrate, para-nitrophenyl phosphate (pNPP).
# To assess the ALPK1 agonist activity of test compounds, the HEK293 cells were seeded in 96-well plates and allowed to attach overnight. Cells were then exposed to graded concentrations of compounds A1, A2, A3, A4, A18, A26, A27, A28, and A30. Compound 28 was included as a reference. Following treatment, cell culture supernatants were collected and analyzed for alkaline phosphatase activity using the pNPP assay. The results are shown in FIGS. 7A-7B and Table 2B-C below. The EC50 for each compound was determined using GraphPad Prism.
# HBV = test: HBV-AAV mouse model: HBV DNA qPCR, serum HBsAg and HBeAg ELISA; type: in vivo; settings: 0.1 mg/kg intraperitoneal on days 28 and 31, serum at day 35, versus PBS control
# Protocol: Administration of Compound 28 (0.1 mg/kg, twice weekly “BIW”) led to downregulation of HBV DNA expression and a decrease in serum levels of HBsAg, and HBeAg in the HBV-AAV mouse model. At day 1, male C57BL/6 mice were intravenously injected with AAV8-1.3HBV (1×10^11 v/g). After days 28 and 31, each mouse was then intraperitoneally injected with 0.1 mg/kg compound 28 or PBS control. At day 35, mouse serum was collected for HBV DNA qPCR analysis, HBsAg and HBeAg serum analysis by ELISA.
# HBsAg, adw = test: Immunization of mice with HBsAg, adw with or without compound; specific total IgG serum titers by ELISA; type: in vivo, mouse
# Protocol: Eight-week-old C57BL/6J mice (females) were intradermally (I.D.) immunized at day 0 with HBsAg, adw (1 mg/dose), or HBsAg, adw at 1 mg/dose combined with compound 28 (1 nmol/dose). Mice were boosted with a second immunization at day 14 and the sera collected at day 35. HBsAg, adw-specific total IgG serum titers (OD450) were determined by ELISA. Anti-HBsAg, adw IgG titers were more than 2× higher when HBsAg, adw was combined with 1 nmol/dose of compound 28 than when HBsAg, adw was injected alone (FIG. 3).
# [3] = system: eosinophils, dendritic cells, neutrophils; test: Porcine pancreas elastase (PPE) induced immune cells in bronchoalveolar lavage, flow cytometry; type: in vivo, mouse; settings: 30 μg/dose PPE, BAL day 2
# Protocol: Eight-week-old male C57BL/6 mice were grouped (N=8/group) and were intraperitoneally (I.P.) injected with compound 28 at 0, 4, or 20 nmol/dose on days −1, 0, and 1. In addition, mice were intratracheally (I.Tr.) administrated with 0 or 30 μg/dose of porcine pancreas elastase (PPE) dissolved in 50 μL saline on day 0. Mice were sacrificed on day 2 and the immune cells were collected by bronchoalveolar lavage (BAL). Cells were then subjected to fluorophore-conjugated antibody staining and analyzed by flow cytometry. Data were processed with a FlowJo […] (Treestar). Immune cells were gated as singlets>live cells>CD11c^highSiglecF^lowMHCII^high (dendritic cells), CD11c^lowCD11b^highLy-6G^high (neutrophils), and CD11c^lowCD11b^highLy-6G^lowSiglecF^high (eosinophils).
# ALPK1 [4] = target: T2, ALPK1 (Mus musculus, UniProt Q9CXB8); test: Serum RANTES (CCL5) levels after subcutaneous injection as measure of ALPK1 activation in vivo; settings: 10 nmole subcutaneous, serum at 24 hours or 48 hours
# T2 construct: C57/B6 mice (n=3 mice/group) were injected subcutaneously; endogenous in cells; host or cells: C57/B6 mice, whole animal
# T2 sequence (Q9CXB8 1-1231): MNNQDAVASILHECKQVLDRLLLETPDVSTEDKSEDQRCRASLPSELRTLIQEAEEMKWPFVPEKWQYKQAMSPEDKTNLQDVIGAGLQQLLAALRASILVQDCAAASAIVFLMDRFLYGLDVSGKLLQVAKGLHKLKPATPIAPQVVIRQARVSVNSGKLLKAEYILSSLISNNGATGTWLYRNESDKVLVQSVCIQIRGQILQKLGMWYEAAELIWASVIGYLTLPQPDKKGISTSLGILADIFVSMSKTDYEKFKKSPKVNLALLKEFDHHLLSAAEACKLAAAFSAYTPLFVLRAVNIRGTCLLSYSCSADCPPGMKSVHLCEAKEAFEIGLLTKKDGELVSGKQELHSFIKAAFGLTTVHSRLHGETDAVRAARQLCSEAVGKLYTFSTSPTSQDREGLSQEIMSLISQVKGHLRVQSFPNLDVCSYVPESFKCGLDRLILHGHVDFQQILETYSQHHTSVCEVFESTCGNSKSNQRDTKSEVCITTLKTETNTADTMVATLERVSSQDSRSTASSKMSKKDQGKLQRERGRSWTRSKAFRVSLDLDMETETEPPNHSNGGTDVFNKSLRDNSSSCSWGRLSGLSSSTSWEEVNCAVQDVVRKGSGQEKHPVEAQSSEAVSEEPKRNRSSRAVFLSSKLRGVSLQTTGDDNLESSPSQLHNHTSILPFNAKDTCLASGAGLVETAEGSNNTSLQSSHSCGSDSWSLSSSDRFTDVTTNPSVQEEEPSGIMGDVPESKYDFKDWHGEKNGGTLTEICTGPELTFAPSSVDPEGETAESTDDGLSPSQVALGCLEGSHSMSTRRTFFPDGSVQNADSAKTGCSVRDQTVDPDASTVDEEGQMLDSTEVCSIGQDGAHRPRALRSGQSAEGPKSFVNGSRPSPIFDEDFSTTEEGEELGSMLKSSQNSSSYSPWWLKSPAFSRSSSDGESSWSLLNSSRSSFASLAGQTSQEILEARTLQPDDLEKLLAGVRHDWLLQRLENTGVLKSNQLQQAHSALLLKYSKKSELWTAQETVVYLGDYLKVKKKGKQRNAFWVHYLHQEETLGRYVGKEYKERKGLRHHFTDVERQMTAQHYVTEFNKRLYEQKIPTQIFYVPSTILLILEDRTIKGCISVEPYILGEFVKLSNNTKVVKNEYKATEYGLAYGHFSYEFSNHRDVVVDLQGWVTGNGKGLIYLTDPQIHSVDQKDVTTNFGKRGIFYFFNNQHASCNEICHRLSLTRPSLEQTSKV
# Protocol: The ability of Compounds 15 and 28 to stimulate ALPK1 activation in vivo was tested by monitoring serum levels of the chemokine RANTES (CCL5), which is elevated upon activation of ALPK1. Briefly, C57/B6 mice (n=3 mice/group) were injected subcutaneously with PBS (negative control) or 10 nmole of Compound 15 or Compound 28. Serum was collected at 24 hours or 48 hours post injection.
# [5] = 4 nmol/dose intraperitoneal days -1, 0, 1
# [6] = 4 nmol/dose intraperitoneal days -1, 0, 1, listed as compound 28
# [7] = 20 nmol/dose intraperitoneal days -1, 0, 1
# [8] = 20 nmol/dose intraperitoneal days -1, 0, 1, listed as compound 28
# T1 sequence (Q96QP1 whole entry): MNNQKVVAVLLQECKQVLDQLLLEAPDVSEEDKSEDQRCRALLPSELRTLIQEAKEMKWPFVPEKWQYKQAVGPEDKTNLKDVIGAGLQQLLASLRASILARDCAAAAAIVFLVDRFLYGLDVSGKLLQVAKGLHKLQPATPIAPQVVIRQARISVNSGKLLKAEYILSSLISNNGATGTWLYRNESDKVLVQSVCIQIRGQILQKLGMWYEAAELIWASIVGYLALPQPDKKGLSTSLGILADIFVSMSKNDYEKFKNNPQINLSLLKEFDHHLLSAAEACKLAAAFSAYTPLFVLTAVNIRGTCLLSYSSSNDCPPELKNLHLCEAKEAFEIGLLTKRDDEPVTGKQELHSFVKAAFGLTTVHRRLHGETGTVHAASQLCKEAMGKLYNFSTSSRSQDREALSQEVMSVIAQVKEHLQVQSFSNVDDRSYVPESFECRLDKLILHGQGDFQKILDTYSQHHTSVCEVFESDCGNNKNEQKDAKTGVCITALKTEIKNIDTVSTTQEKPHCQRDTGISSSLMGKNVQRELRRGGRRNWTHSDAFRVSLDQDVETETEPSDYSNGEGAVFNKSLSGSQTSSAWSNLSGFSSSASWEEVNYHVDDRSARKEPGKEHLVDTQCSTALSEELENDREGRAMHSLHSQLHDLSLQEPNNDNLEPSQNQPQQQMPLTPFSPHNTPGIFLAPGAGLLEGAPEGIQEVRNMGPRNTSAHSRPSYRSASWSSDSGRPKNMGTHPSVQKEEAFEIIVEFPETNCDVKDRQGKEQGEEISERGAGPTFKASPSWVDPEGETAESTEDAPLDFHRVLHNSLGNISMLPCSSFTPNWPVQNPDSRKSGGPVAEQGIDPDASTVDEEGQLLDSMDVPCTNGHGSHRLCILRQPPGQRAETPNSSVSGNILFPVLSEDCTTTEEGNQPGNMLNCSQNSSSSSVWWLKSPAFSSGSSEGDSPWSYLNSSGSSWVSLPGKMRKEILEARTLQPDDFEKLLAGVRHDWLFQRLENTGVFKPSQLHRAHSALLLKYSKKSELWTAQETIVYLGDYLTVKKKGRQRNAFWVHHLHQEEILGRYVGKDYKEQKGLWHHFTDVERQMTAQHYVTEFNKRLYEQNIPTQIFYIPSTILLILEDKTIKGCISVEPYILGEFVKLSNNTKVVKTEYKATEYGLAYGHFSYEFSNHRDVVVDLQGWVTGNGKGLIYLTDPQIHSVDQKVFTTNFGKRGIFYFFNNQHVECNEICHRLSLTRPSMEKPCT
smiles,measurement,setting,value
CC(=O)OC[C@H](F)C1O[C@@H](OP(=O)(O)OP(O)(=S)OC[C@H]2O[C@@H](n3cnc4c(N)ncnc43)C(O)C2O)C(OC(C)=O)C(OC(C)=O)[C@@H]1OC(C)=O (stereo partly drawn) [Compound 28],EC50,ALPK1 [1],45 nM
same,EC50,"ALPK1 [2]; FIG. 7A, Table 2B",45 nM
same,EC50,"ALPK1 [2]; FIG. 7B, Table 2C",67 nM
same,HBV DNA expression,HBV,marked decrease; also recorded: down-regulation
same,serum levels of HBeAg,HBV,marked decrease; also recorded: lower levels
same,serum levels of HBsAg,HBV,marked decrease; also recorded: lower levels
same,"IgG response against HBsAg, adw (in words)","HBsAg, adw; 1 nmol with HBsAg, adw versus HBsAg, adw alone",increased IgG response
same,"Anti-HBsAg, adw IgG titers, HBsAg, adw combined with compound relative to HBsAg, adw alone","HBsAg, adw; 1 nmol/dose intradermal, days 0 and 14, sera day 35",more than 2 ×
same,production of dendritic cells after PPE administration,[3]; [5],decrease
same,production of eosinophils after PPE administration,[3]; [5],decrease
same,production of neutrophils after PPE administration,[3]; [5],decrease
same,production of dendritic cells after PPE administration,[3]; [6],significantly suppressed
same,production of eosinophils after PPE administration,[3]; [6],significantly suppressed
same,production of neutrophils after PPE administration,[3]; [6],only at the 20 nmol/dose level
same,production of dendritic cells after PPE administration,[3]; [7],decrease
same,production of eosinophils after PPE administration,[3]; [7],decrease
same,production of neutrophils after PPE administration,[3]; [7],decrease
same,production of dendritic cells after PPE administration,[3]; [8],significantly suppressed
same,production of eosinophils after PPE administration,[3]; [8],significantly suppressed
same,production of neutrophils after PPE administration,[3]; [8],suppressed
same,"duration of immune activation (serum RANTES), compared to Compound 15",ALPK1 [4],longer duration of immune activation
